Assay [1] concerns the target EGFR(Dell9_T790M_C797S) (aa 669-1210, in house) (Homo sapiens, UniProt P00533, T790M/C797S, form not given). The experiment in a line: Biochemical EGFR inhibition assay (TR-FRET), Del19/T790M/C797S mutant. As to conditions: ATP at Km, 15 min pre-incubation, 60 min reaction; read-out: Del_TM_CS (Km ATP) IC50. As for the experimental part:
(§1) Compounds were tested for inhibition of kinase activity against EGFR (aa668-1210, Invitrogen), EGFR(L858R_T790M_C797S) (aa695-end, Invitrogen) and EGFR(Dell9_T790M_C797S) (aa 669-1210, in house) in assays based on time-resolved fluorescence-resonance energy transfer (TR-FRET) methodology. Recombinant EGFR, EGFR(L858R_T790M_C797S) or EGFR(Dell9_T790M_C797S) was pre-incubated with the compounds at room temperature for 15 minutes in an assay buffer containing 50 mM HEPES pH7.5, 10 mM MgCl2, 2 mM DTT, 1 mM EGTA, 0.1% BSA, 0.01% Tween-20. The reactions were initiated by the addition of ATP (at the concentration of ATP Km) and substrate Biotin-Poly GT. After reaction at room temperature for 60 minutes, stop/detection solution was added. The stop/detection solution contained Eu^3+ cryptate-conjugated mouse monoclonal antibody (PT66) anti-phosphotyrosine and XL665-conjugated streptavidin in buffer containing 50 mM HEPES pH7.0, 800 mM KF, 20 mM EDTA, and 0.1% BSA. Plates were sealed and incubated at room temperature for 1 hour, and the TR-FRET signals (ratio of fluorescence emission at 665 nm over emission at 620 nm with excitation at 337 nm wavelength) were recorded on a PHERAstar FS plate reader (BMG Labtech). The residual enzyme activity in presence of increasing concentrations of compounds was calculated based on the ratio of fluorescence at 665 nm to that at 620 nm. The IC50 for each compound was derived from fitting the data to the four-parameter logistic equation by Dotmatics or Graphpad Prism software.
(§2) These biochemical EGFR enzyme form compound dose-response assays quantify the kinase activity via phosphorylation of a tagged poly-GT substrate. The results of the assay are provided as IC50 values.
A general note: In TR-FRET formats the signal depends on donor and acceptor labels being close together.

Assay [2] has as its target T1, EGFR(L858R_T790M_C797S) (aa695-end, Invitrogen) (Homo sapiens, UniProt P00533, C797S/L858R/T790M).
T1 construct: purchased Invitrogen
The experiment in a line: Biochemical EGFR inhibition assay (TR-FRET), L858R/T790M/C797S mutant. As to conditions: ATP at Km, 15 min pre-incubation, 60 min reaction; read-out: LR_TM_CS (Km ATP) IC50. As for the experimental part:
as §1, §2

Assay [3] concerns the target T2, EGFR (aa668-1210, Invitrogen) (Homo sapiens, UniProt P00533).
T2 construct: EGFR (aa668-1210, Invitrogen); purchased Invitrogen
The experiment in a line: Biochemical EGFR inhibition assay (TR-FRET), wild-type EGFR. The settings on record: ATP at Km, 15 min pre-incubation, 60 min reaction; read-out: WT (Km ATP) IC50. As for the experimental part: as §1, §2

Chain of EGFR(Dell9_T790M_C797S) (aa 669-1210, in house) (P00533 with tags, fused parts or gaps DEL746-750/T790M/C797S, form open): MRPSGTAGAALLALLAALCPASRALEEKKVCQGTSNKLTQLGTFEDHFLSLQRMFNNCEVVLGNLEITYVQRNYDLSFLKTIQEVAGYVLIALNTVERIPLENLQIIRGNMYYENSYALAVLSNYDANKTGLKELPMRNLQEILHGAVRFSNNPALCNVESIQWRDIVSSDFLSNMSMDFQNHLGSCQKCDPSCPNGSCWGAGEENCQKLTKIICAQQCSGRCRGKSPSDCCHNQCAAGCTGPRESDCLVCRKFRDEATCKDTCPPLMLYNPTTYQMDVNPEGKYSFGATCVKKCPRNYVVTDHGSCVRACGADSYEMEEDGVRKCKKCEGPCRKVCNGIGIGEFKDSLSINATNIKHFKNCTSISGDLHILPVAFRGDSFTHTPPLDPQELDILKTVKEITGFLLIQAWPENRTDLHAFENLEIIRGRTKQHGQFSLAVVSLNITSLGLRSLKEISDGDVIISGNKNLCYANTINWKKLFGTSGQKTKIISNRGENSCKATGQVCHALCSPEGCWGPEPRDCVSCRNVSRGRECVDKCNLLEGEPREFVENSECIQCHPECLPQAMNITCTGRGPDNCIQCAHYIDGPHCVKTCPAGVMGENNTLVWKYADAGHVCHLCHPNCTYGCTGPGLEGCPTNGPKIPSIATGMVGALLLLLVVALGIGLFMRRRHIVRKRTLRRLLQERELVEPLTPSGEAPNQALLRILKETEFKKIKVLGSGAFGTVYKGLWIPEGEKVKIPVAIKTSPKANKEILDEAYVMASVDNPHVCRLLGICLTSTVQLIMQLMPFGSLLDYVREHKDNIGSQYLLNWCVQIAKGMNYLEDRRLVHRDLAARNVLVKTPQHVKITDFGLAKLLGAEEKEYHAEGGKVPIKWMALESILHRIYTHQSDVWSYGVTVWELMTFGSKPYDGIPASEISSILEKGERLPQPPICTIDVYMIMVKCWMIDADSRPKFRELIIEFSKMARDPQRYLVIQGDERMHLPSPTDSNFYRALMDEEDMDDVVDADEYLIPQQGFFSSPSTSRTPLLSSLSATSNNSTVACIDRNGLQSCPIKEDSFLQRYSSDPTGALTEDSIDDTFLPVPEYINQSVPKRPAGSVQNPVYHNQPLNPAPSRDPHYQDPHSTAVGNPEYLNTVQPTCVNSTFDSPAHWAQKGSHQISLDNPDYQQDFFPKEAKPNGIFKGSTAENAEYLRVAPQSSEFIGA
T2 sequence (P00533 668-1210): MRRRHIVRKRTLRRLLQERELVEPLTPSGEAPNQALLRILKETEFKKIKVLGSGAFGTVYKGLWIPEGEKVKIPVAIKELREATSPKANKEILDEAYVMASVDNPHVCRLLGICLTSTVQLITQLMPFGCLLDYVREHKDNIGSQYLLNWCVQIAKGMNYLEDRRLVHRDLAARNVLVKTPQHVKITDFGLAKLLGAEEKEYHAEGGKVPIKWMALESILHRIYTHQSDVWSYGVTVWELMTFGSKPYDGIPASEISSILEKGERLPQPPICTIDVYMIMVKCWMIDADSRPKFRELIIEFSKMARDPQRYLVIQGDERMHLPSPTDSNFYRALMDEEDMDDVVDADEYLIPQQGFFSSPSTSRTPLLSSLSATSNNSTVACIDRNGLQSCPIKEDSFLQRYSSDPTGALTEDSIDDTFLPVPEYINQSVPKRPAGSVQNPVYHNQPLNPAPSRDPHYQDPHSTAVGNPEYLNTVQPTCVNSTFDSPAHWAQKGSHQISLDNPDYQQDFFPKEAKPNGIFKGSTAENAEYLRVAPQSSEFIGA
T1 sequence (P00533 695-1210 T790M/C797S/L858R): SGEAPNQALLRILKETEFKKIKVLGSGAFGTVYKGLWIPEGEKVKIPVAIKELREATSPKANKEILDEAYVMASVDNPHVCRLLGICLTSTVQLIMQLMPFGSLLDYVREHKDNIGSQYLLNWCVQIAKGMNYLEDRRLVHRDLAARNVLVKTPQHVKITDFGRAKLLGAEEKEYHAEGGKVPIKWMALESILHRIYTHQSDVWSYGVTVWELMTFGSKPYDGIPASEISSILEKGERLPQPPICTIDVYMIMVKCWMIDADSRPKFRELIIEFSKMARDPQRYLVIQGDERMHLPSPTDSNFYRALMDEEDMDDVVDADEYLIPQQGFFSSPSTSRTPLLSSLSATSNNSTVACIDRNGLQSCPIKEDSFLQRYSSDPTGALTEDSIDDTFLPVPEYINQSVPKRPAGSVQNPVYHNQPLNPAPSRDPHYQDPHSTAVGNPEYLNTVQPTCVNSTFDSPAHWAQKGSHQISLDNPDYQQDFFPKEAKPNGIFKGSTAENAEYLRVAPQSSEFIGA

The IC50 is the concentration at which inhibition is half-maximal. With `CCN1CCN(C2CCN(c3cc(F)c(Nc4ncc(Br)c(Nc5cccc6c5N(S(C)(=O)=O)CC6)n4)cc3F)CC2)CC1` [Example 185, 5-bromo-N2-(4-(4-(4-ethylpiperazin-1-yl)piperidin-1-yl)-2,5-difluorophenyl)-N4-(1-(methylsulfonyl)indolin-7-yl)pyrimidine-2,4-diamine], the IC50 in assay [1] stood at 0.3 nM; in assay [2], 0.3 nM; in assay [3], 1.5 nM.
Turning to `CN1CCN(C2CCN(c3ccc(Nc4nc(Nc5cccc6c5N(S(C)(=O)=O)CC6)c5cc[nH]c5n4)cn3)CC2)CC1` [Example 184, N2-(6-(4-(4-methylpiperazin-1-yl)piperidin-1-yl)pyridin-3-yl)-N4-(1-(methylsulfonyl)indolin-7-yl)-7H-pyrrolo[2,3-d]pyrimidine-2,4-diamine], the figures for the IC50 in assay [1], in assay [2] and in assay [3] were 2.5 nM, 1.7 nM and 427 nM, respectively.
The matching figures for `COc1cc(Nc2nc(Nc3cccc4c3N(S(C)(=O)=O)CC4)c3cc[nH]c3n2)cc(F)c1N1CCC(N2CCN(C)CC2)CC1` [Example 148, N2-(3-fluoro-5-methoxy-4-(4-(4-methylpiperazin-1-yl)piperidin-1-yl)phenyl)-N4-(1-(methylsulfonyl)indolin-7-yl)-7H-pyrrolo[2,3-d]pyrimidine-2,4-diamine]: 6.5 nM, 9.9 nM and 1390 nM.
The matching figures for `COc1cc(Nc2nc(Nc3cccc4c3N(S(C)(=O)=O)CC4)c3cc[nH]c3n2)c(F)cc1N1CCC(N2CCN(C)CC2)CC1` [Example 149, N2-(2-fluoro-5-methoxy-4-(4-(4-methylpiperazin-1-yl)piperidin-1-yl)phenyl)-N4-(1-(methylsulfonyl)indolin-7-yl)-7H-pyrrolo[2,3-d]pyrimidine-2,4-diamine]: 0.4 nM, 0.4 nM and 22.1 nM.
For `COc1cc(N2CCC(N3CCN(C)C4(CC4)C3)CC2)ccc1Nc1ncc(Br)c(Nc2cccc3c2N(S(C)(=O)=O)CC3)n1` [Example 192, 5-bromo-N2-(2-methoxy-4-(4-(4-methyl-4,7-diazaspiro[2.5]octan-7-yl)piperidin-1-yl)phenyl)-N4-(1-(methylsulfonyl)indolin-7-yl)pyrimidine-2,4-diamine], the results for the IC50 in assay [1], in assay [2] and in assay [3] were 0.2 nM, 0.1 nM and 0.7 nM, respectively.
On to `COc1cc(N(C)CCN(C)C)ccc1Nc1nc(Nc2cccc3c2N(S(C)(=O)=O)CC3)c2cc[nH]c2n1` [Example 112, N^2-(4-((2-(dimethylamino)ethyl)(methyl)amino)-2-methoxyphenyl)-N^4-(1-(methylsulfonyl)indolin-7-yl)-7H-pyrrolo[2,3-d]pyrimidine-2,4-diamine], for which the results for the IC50 in assay [1], in assay [2] and in assay [3] were 14.6 nM, 2.9 nM and 840 nM, respectively.
As for `COc1cc(N2CCC(N3CCN(C)CC3)CC2)ccc1Nc1ncc(Cl)c(Nc2cccc3c2N(S(C)(=O)=O)CC32CC2)n1` [Example 187, 5-chloro-N2-(2-methoxy-4-(4-(4-methylpiperazin-1-yl)piperidin-1-yl)phenyl)-N4-(1′-(methylsulfonyl)spiro[cyclopropane-1,3′-indolin]-7′-yl)pyrimidine-2,4-diamine], the figures for the IC50 in assay [1], in assay [2] and in assay [3] were 0.3 nM, 0.3 nM and 0.8 nM, respectively.
In the case of `CN1CCN(C2CCN(c3ccc(Nc4nc(Nc5cccc6c5N(S(C)(=O)=O)CC6)c5cc[nH]c5n4)cc3Cl)CC2)CC1` [Example 80, N^2-(3-chloro-4-(4-(4-methylpiperazin-1-yl)piperidin-1-yl)phenyl)-N^4-(1-(methylsulfonyl)indolin-7-yl)-7H-pyrrolo[2,3-d]pyrimidine-2,4-diamine], the half-maximal inhibitory concentration (IC50) in assay [1] was found to be 0.85 nM; in assay [2], 0.7 nM; in assay [3], 40.4 nM.
The matching figures for `COc1cc(C2CCN(CCN(C)C)CC2)c(C)cc1Nc1nc(Nc2cccc3c2N(S(C)(=O)=O)CC3)c2cc[nH]c2n1` [Example 109, N^2-(4-(1-(2-(dimethylamino)ethyl)piperidin-4-yl)-2-methoxy-5-methylphenyl)-N^4-(1-(methylsulfonyl)indolin-7-yl)-7H-pyrrolo[2,3-d]pyrimidine-2,4-diamine]: 10 nM, 3.1 nM and 433 nM.
The matching figures for `COc1cc(N2CCC3(CC2)CN(C)C3)c(C)cc1Nc1ncc(Br)c(Nc2cccc3c2N(S(C)(=O)=O)CC3)n1` [Example 45, 5-bromo-N^2-(2-methoxy-5-methyl-4-(2-methyl-2,7-diazaspiro[3.5]nonan-7-yl)phenyl)-N^4-(1-(methylsulfonyl)indolin-7-yl)pyrimidine-2,4-diamine]: 0.3 nM, 0.2 nM and 1 nM.
Turning to `CC1Cc2c(N3CCC(N4CCN(C)CC4)CC3)ccc(Nc3ncc(Br)c(Nc4cccc5c4N(S(C)(=O)=O)CC5)n3)c2O1` (stereo not drawn) [Example 61, 5-bromo-N^2-(2-methyl-4-(4-(4-methylpiperazin-1-yl)piperidin-1-yl)-2,3-dihydrobenzofuran-7-yl)-N^4-(1-(methylsulfonyl)indolin-7-yl)pyrimidine-2,4-diamine], the IC50 is 1.58 nM in assay [1], 1.5 nM in assay [2] and 15.2 nM in assay [3].
As for `CN1CCN(C2CCN(c3ccc(Nc4nc(Nc5cccc6c5N(S(C)(=O)=O)CC6)c5cc[nH]c5n4)cc3)CC2)CC1` [Example 194, N2-(4-(4-(4-methylpiperazin-1-yl)piperidin-1-yl)phenyl)-N4-(1-(methylsulfonyl)indolin-7-yl)-7H-pyrrolo[2,3-d]pyrimidine-2,4-diamine], the IC50 stood at 0.2 nM in assay [1], 0.1 nM in assay [2] and 16.5 nM in assay [3].
On to `CN(C)C1CCN(c2ccc(Nc3ncc(Br)c(Nc4cccc5c4N(S(C)(=O)=O)CC5)n3)c3c2CC(C)(C)O3)CC1` [Example 55, 5-bromo-N^2-(4-(4-(dimethylamino)piperidin-1-yl)-2,2-dimethyl-2,3-dihydrobenzofuran-7-yl)-N^4-(1-(methylsulfonyl)indolin-7-yl)pyrimidine-2,4-diamine], for which the IC50 amounted to 5.82 nM in assay [1], 7 nM in assay [2] and 64.5 nM in assay [3].
The matching figures for `COc1cc(N2C[C@@H](C)N(C)[C@@H](C)C2)c(C)cc1Nc1ncc(Br)c(Nc2cccc3c2N(S(C)(=O)=O)CC3)n1` [Example 42, 5-bromo-N^2-(2-methoxy-5-methyl-4-((3S,5R)-3,4,5-trimethylpiperazin-1-yl)phenyl)-N^4-(1-(methylsulfonyl)indolin-7-yl)pyrimidine-2,4-diamine]: 0.3 nM, 0.4 nM and 8.5 nM.
The matching figures for `CN1CCN(c2ccc(Nc3ncc(Br)c(Nc4cccc5c4N(S(C)(=O)=O)CC5)n3)c3c2CC(C)(C)O3)CC1` [Example 56, 5-bromo-N^2-(2,2-dimethyl-4-(4-methylpiperazin-1-yl)-2,3-dihydrobenzofuran-7-yl)-N^4-(1-(methylsulfonyl)indolin-7-yl)pyrimidine-2,4-diamine]: 10.6 nM, 23.3 nM and 241 nM.

Source of the values: US20260167619A2, “INDOLINE COMPOUNDS AND DERIVATIVES AS EGFR INHIBITORS” (BeOne Medicines I GmbH, priority 2020, published 2026).
